Measurements: patent US10526316B2, “Quinoxaline and pyridopyrazine derivatives as PI3Kβ inhibitors” (Janssen Pharmaceutica NV, priority 2015, dated 2020)
pIC50, pKd: −log10 of the molar value. Read-outs that look alike come from different tables or passages of the source.

What was measured:
[1] = system: Akt phosphorylated at Thr308 in PC-3 cells; test: Cellular assay: phosphorylation of Akt at Thr308 in PC-3 cells (MSD ELISA); format: cell-based; conditions: PC-3 cells, 60 min compound incubation, MSD ELISA, read-out: IC50 pAkt_Thr308
Outline: (§1)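 Phospho-Akt in whole-cell lysates is quantified by electrochemiluminescent immunoassay using phospho-site capture and total-Akt detection antibodies.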

kinase enzymes [2] = target: T1, kinase enzymes (Homo sapiens, UniProt P48736); test: Enzyme binding assay (KINOMEscan, DiscoveRx), further kinases of Table A; conditions: PIK3Cγ_h
T1 construct: purchased DiscoveRx Corporation, San Diego (contract service, KINOMEscan)
T1 sequence (P48736 whole entry): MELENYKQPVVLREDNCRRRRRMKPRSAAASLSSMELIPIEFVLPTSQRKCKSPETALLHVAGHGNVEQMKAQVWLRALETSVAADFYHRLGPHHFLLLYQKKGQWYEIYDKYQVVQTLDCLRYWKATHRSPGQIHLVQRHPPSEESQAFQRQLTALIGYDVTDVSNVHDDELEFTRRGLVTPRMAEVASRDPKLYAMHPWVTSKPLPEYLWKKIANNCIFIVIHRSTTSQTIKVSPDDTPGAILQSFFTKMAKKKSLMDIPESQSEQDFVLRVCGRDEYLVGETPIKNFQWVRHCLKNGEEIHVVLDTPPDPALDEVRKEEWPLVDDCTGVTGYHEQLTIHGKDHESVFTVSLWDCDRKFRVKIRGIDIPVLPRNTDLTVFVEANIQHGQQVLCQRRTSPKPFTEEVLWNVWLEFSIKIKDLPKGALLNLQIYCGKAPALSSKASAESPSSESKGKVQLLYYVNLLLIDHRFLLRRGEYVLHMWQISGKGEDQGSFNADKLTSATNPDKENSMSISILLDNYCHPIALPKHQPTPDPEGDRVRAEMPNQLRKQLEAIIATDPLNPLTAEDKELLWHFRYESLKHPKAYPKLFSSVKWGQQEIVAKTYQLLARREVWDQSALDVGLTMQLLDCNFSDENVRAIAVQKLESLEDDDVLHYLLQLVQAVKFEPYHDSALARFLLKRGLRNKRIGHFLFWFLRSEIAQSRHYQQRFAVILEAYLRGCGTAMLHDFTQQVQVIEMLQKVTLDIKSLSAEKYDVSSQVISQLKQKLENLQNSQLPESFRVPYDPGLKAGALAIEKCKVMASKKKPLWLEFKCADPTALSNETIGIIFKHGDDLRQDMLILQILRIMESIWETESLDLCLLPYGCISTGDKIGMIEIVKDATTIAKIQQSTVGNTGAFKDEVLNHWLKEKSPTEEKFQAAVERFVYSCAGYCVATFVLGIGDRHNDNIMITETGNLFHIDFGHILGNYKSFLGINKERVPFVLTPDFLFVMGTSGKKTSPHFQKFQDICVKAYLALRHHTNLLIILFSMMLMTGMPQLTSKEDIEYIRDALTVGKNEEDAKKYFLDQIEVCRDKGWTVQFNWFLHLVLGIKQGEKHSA
Outline: (§2)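 KINOMEscan readout; values are kinase binding affinities.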

kinase enzymes [3] = target: T2, kinase enzymes (Homo sapiens, UniProt P42345); test: as above; conditions: MTOR_h
T2 construct: purchased DiscoveRx Corporation, San Diego (contract service, KINOMEscan)
Outline: as §2

kinase enzymes [4] = target: T3, kinase enzymes (Homo sapiens, UniProt P42336); test: as above; conditions: PIK3Cα_h
T3 construct: purchased DiscoveRx Corporation, San Diego (contract service, KINOMEscan)
T3 sequence (P42336 whole entry): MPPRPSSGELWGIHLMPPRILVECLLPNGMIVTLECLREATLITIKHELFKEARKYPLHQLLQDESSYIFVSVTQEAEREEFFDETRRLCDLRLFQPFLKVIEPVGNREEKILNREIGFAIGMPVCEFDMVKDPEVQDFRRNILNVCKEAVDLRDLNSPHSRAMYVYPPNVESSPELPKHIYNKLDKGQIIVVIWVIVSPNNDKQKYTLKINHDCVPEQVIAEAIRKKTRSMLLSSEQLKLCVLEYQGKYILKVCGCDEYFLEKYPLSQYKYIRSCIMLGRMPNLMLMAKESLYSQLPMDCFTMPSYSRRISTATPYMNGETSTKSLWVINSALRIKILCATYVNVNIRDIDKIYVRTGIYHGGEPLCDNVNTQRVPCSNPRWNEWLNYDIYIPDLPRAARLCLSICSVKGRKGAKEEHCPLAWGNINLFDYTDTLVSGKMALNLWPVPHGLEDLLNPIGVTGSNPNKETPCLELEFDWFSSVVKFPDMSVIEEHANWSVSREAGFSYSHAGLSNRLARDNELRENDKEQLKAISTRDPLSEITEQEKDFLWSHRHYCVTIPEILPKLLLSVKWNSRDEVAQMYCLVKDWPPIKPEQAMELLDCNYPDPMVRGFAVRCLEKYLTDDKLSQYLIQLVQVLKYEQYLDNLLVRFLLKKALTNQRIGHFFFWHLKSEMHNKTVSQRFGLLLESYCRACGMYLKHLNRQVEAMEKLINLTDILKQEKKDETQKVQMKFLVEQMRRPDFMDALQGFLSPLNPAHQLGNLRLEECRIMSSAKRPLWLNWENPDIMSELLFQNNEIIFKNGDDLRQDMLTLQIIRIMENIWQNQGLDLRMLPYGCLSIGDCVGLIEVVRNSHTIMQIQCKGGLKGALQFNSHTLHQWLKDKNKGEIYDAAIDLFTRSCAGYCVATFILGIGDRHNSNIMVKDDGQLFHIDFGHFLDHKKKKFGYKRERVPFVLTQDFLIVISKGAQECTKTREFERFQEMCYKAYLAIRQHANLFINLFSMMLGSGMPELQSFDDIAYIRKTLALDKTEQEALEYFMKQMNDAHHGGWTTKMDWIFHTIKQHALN
Outline: as §2

PI3Kβ = target: T4, PI3Kβ (Homo sapiens, UniProt P42338); test: Enzyme binding assay (KINOMEscan, DiscoveRx); conditions: PIK3Cβ_h, read-out: Kd PIK3Cβ_h
T4 construct: purchased DiscoveRx Corporation, San Diego (contract service, KINOMEscan)
T4 sequence (P42338 whole entry): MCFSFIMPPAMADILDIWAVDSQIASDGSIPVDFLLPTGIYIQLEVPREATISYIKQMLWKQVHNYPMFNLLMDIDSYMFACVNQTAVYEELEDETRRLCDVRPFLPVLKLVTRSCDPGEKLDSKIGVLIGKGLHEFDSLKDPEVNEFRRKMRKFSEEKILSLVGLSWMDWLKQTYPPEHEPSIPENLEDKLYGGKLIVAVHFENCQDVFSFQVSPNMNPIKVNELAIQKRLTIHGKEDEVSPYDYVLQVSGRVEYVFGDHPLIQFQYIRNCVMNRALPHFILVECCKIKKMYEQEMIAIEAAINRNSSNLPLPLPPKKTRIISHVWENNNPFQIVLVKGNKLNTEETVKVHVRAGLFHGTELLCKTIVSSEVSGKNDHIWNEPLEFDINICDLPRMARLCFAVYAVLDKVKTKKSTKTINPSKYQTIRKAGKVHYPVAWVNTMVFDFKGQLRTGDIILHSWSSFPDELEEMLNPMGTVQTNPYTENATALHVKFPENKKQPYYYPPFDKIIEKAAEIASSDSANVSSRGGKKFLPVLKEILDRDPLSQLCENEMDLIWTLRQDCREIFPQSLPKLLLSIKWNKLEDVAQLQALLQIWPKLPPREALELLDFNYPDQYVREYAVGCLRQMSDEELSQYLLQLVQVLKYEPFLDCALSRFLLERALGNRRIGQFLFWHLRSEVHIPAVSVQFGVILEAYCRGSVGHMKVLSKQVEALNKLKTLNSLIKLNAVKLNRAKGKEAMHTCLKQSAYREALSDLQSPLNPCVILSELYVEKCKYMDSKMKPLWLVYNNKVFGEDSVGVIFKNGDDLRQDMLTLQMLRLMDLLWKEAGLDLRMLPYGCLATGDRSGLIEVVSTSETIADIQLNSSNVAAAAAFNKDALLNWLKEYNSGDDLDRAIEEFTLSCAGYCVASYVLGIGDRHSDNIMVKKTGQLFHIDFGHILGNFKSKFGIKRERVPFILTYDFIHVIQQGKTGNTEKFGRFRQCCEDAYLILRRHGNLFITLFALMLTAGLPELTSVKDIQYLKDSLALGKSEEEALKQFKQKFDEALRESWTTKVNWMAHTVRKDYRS
Outline: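 KINOMEscan binding platform; read-out is the inhibitor binding constant Kd (nM).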

[5] = system: Akt phosphorylated at Ser473 in PC-3 cells; test: Cellular assay: phosphorylation of Akt at Ser473 in PC-3 cells (MSD ELISA); format: cell-based; conditions: PC-3 cells, 60 min compound incubation, MSD ELISA, read-out: IC50 pAkt_S473
Outline: as §1

PI3Kδ = target: T5, PI3Kδ (Homo sapiens, UniProt O00329); test: Enzyme binding assay (KINOMEscan, DiscoveRx); conditions: PIK3Cδ_h
T5 construct: purchased DiscoveRx Corporation, San Diego (contract service, KINOMEscan)
T5 sequence (O00329 1-1044): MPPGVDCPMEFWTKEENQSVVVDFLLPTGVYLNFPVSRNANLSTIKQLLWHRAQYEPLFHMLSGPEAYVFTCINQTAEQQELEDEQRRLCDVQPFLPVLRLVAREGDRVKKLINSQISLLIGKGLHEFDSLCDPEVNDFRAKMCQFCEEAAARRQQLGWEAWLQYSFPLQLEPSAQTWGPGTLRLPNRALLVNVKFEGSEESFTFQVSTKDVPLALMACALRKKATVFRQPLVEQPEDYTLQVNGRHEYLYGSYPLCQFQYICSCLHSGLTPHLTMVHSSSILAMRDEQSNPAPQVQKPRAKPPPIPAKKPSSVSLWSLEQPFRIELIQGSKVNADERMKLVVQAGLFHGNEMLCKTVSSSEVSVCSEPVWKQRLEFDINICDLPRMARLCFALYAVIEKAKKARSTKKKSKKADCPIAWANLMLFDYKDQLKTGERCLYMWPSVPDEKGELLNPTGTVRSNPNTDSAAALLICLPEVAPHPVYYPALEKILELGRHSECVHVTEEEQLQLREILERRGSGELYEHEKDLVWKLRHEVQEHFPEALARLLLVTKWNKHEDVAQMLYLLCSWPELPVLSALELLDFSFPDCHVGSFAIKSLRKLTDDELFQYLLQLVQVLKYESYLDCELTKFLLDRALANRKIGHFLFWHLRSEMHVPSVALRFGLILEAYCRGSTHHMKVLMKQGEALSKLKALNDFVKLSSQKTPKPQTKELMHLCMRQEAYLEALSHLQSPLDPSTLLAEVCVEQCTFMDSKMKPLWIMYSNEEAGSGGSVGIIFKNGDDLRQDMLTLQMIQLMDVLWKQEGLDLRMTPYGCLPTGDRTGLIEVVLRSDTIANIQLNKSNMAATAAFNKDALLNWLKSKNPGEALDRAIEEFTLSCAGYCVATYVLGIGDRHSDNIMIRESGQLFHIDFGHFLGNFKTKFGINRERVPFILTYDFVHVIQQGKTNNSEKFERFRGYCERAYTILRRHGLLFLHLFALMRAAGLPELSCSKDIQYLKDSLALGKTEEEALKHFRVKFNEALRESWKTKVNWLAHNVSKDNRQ
Outline: as §2

melting point [°C]	pIC50 [1]	pKd (kinase enzymes [2])	pKd (kinase enzymes [3])	pKd (kinase enzymes [4])	pKd (PI3Kβ)	pIC50 [5]	pKd (PI3Kδ)	pIC50 ([1]; Homo sapiens, PC-3, 1 h)	pIC50 ([5]; Homo sapiens, PC-3, 1 h)	SMILES
218	8.05	5.94	4.58	6.56	9.40	7.74	7.12	–	–	CC(Nc1cc(F)cc(F)c1)c1cc(C(=O)N(C)C)cc2ncc(N3CCOCC3)nc12 (single isomer, unassigned) [Compound 12]
217	< 6.29	< 4.52	< 4.52	4.62	6.74	< 6.29	5.23	–	–	CC(Nc1cc(F)cc(F)c1)c1cc(C(=O)N(C)C)cc2ncc(N3CCOCC3)nc12 (single isomer, unassigned) [Compound 13]
170	–	6.97	4.91	7.60	10.00	–	8.52	9.00	~8.52	CNCCNC(=O)c1cc(C2CCCN2c2cc(F)cc(F)c2)c2nc(N3CCOCC3)cnc2c1 (single isomer, unassigned) [Compound 17]
184	–	4.80	4.70	5.32	7.20	–	5.65	~6.30	6.29	CC(Oc1cc(F)cc(F)c1)c1cc(-c2cnc[nH]2)cc2ncc(N3CCOCC3)nc12 (single isomer, unassigned) [Compound 21]
183	< 6.29	< 4.52	4.66	4.82	5.25	< 6.29	4.73	–	–	CC(Oc1cc(F)cc(F)c1)c1cc(-c2cnc[nH]2)cc2ncc(N3CCOCC3)nc12 (single isomer, unassigned) [Compound 22]
100	7.52	6.43	4.73	6.52	9.00	7.44	6.61	–	–	Fc1cc(F)cc(N2CCCC2c2cncc3ncc(N4CCOCC4)nc23)c1 (single isomer, unassigned) [Compound 24]
98	< 6.29	4.89	< 4.52	4.91	7.43	< 6.29	5.33	–	–	Fc1cc(F)cc(N2CCCC2c2cncc3ncc(N4CCOCC4)nc23)c1 (single isomer, unassigned) [Compound 25]
213	< 6.29	< 4.49	< 4.49	< 4.49	< 4.49	< 6.29	< 4.49	–	–	COC(=O)c1cc(C2CCCN2c2cc(F)cc(F)c2)c2nc(N3CCOCC3)cnc2c1 (single isomer, unassigned) [Compound 31]
280	8.40	6.41	< 4.52	7.24	9.00	8.52	7.33	–	–	O=C(c1cc(C2CCCN2c2cc(F)cc(F)c2)c2nc(N3CCOCC3)cnc2c1)N1CCC1 (single isomer, unassigned) [Compound 33]
276	6.90	< 4.52	< 4.52	5.21	7.70	6.70	5.54	–	–	O=C(c1cc(C2CCCN2c2cc(F)cc(F)c2)c2nc(N3CCOCC3)cnc2c1)N1CCC1 (single isomer, unassigned) [Compound 37]
146	9.00	6.03	< 4.52	8.52	9.40	~9.10	8.22	–	–	O=C(c1cc(C2CCCN2c2cc(F)cc(F)c2)c2nc(N3CCOCC3)cnc2c1)N1CCS(=O)(=O)CC1 (single isomer, unassigned) [Compound 38]
